The text below walks through data of patent publication US20110251212A1, “PIPERAZINE DERIVATIVES” (SHIONOGI & CO., LTD., priority 2007, published 2011).

Assay [1] deals with T1, NMDA Receptor (NR1/NR2B Receptor) (Rattus norvegicus, UniProt P35439+Q00960).
T1 construct: this was used as a membrane specimen in an experiment; from tissue; host or cells: rat cerebral cortex membranes
The assay is described as follows: Experiment of binding to NMDA receptor (NR1/NR2B receptor), [3H]-Ifenprodil competition, rat cerebral cortex membrane. Conditions: [3H]-Ifenprodil 5 nM, GBR-12909 3 μM, ice temperature 120 minutes. The procedure: Using Ifenprodil which is a NR1/NR2B subtype receptor-specific antagonist as a ligand, an experiment of receptor competition with a test compound was performed.
A male Slc:Wistar rat was used as an animal, a decapitated brain was isolated, and cerebral cortex was fractionated. The cerebral cortex was homogenized with a 20-fold amount of an ice-cooled 50 mM Tris/HCl buffer (pH 7.4), and centrifuged at 4° C. and 27,500×g for 10 minutes. The resulting precipitate was suspended in the same buffer, and the suspension was centrifuged again. This procedure was repeated three times, and the resulting precipitate was suspended in a buffer, and stored at −80° C. Immediately before an experiment, the frozen suspension was thawed at room temperature, and centrifuged at 4° C. and 27,500×g for 10 minutes, and the resulting precipitate was suspended in a buffer. The suspension was further diluted 10-fold with a buffer, and this was used as a membrane specimen in an experiment.
In a binding experiment, to 470 μl of the membrane specimen were added 10 μl of different concentrations of a test compound, 10 μl of a labeled ligand [3H]-Ifenprodil and 10 μl of GBR-12909, and this was incubated at an ice temperature for 120 minutes. A concentration of [3H]-Ifenprodil of the labeled ligand was finally 5 nM, and a concentration of GBR-12909 was finally 3 μM. For measuring a total binding amount, DMSO as a solvent was used and, for measuring a non-specific binding amount, 100 μM of Ifenprodil was used. In addition, GBR-12909 was added in order to block binding of [3H]-Ifenprodil to a non-polyamine-sensitive site. After incubation, a bound body and a free body were separated using a Whatman GF/C filter (manufactured by Whatman), and the filter was washed with 2.5 ml of an ice-cooled buffer four times. The filter was immersed in a liquid scintillation (Clear-sol I, manufactured by Nacalai tesque) in a vial bottle, and radioactivity (dpm) was measured with a liquid scintillation counter. From a measured value, a binding inhibition rate (%) was obtained by the following equation, and a dose at which binding is inhibited 50% (IC50) was calculated. A formula of GBR-12909 (Vanoxerine) is shown below.
Binding inhibition rate(%)=100−[(binding amount in presence of test compound−non-specific amount)/(total binding amount−non-specific binding amount)]×100

For assay [2], the target named is T2, mouse NMDA receptor (NR1 subunit and NR2B subunit co-expressed in HEK293 cells) (Mus musculus, UniProt P35438+Q01097).
T2 construct: expressed in transfected cells; host or cells: HEK293 cells, transient, pcDNA 3.1 plasmids
The assay is described as follows: Expression of NMDA receptor and measurement of Ca ion flow in amount (HEK293 cells, Fluo-3/AM, FDSS3000). It is filed as cell-based. Particulars: Ca ion flow in induced with glutamic acid 20 μM/glycine 2 μM, read-out: Ca2+ 1050. The procedure:
Test Example 2 Expression of NMDA receptor and measurement of Ca ion flow in amount
A complementary DNA (cDNA) of a mouse NMDA receptor subunit was transiently introduced into HEK293 cells and, after one day from introduction, change in a glutamic acid/glycine-induced intracellular Ca amount was measured using a Ca ion reactive fluorescent dye.
HEK293 cells were cultured and passaged using a modified Dulbecco's Eagle medium (DMEM, low glucose).
20,000/well of HEK293 cells were seeded on a 96-well plate, a NR1 subunit and a NR2B subunit of a NMDA receptor incorporated into pcDNA 3.1 plasmid were transiently introduced into cells, and co-expression of subunits was performed. An introduction amount of a DNA was such that the NR1 subunit was 0.025 μg, and the NR2B subunit was 0.075 μg per well. For cells after introduction, cell death was inhibited using 50 μM of a NMDA receptor antagonist MK-801.
For adjusting a test compound and washing cells, Krebs Ringer Hepes buffer (KRH, Ca: 5 mM) was used.
One day after introduction, the NMDA receptor antagonist MK-801 was washed off using the KRH buffer, and a Ca ion indicative fluorescent dye Fluo-3/AM was made to be taken into cells. Flow in of a Ca ion was induced with glutamic acid 20 μM/glycine 2 μM. Change in a fluorescence amount due to intracellular Ca ion flow in was measured at excitation 480 nm using a fluorescence imaging system FDSS3000.
From a measured value of the test compound, a Ca ion flow in inhibitory rate (%) was obtained by the following equation, and a dose at which flow in is 50% inhibited (IC50) was calculated.
Ca ion flow in inhibitory rate(%)=100−[(fluorescence amount in presence of test compound−background fluorescence amount)/(total fluorescence amount[…]background fluorescence amount)]×100

T2 sequence (Q01097 27-1482, other chains not shown): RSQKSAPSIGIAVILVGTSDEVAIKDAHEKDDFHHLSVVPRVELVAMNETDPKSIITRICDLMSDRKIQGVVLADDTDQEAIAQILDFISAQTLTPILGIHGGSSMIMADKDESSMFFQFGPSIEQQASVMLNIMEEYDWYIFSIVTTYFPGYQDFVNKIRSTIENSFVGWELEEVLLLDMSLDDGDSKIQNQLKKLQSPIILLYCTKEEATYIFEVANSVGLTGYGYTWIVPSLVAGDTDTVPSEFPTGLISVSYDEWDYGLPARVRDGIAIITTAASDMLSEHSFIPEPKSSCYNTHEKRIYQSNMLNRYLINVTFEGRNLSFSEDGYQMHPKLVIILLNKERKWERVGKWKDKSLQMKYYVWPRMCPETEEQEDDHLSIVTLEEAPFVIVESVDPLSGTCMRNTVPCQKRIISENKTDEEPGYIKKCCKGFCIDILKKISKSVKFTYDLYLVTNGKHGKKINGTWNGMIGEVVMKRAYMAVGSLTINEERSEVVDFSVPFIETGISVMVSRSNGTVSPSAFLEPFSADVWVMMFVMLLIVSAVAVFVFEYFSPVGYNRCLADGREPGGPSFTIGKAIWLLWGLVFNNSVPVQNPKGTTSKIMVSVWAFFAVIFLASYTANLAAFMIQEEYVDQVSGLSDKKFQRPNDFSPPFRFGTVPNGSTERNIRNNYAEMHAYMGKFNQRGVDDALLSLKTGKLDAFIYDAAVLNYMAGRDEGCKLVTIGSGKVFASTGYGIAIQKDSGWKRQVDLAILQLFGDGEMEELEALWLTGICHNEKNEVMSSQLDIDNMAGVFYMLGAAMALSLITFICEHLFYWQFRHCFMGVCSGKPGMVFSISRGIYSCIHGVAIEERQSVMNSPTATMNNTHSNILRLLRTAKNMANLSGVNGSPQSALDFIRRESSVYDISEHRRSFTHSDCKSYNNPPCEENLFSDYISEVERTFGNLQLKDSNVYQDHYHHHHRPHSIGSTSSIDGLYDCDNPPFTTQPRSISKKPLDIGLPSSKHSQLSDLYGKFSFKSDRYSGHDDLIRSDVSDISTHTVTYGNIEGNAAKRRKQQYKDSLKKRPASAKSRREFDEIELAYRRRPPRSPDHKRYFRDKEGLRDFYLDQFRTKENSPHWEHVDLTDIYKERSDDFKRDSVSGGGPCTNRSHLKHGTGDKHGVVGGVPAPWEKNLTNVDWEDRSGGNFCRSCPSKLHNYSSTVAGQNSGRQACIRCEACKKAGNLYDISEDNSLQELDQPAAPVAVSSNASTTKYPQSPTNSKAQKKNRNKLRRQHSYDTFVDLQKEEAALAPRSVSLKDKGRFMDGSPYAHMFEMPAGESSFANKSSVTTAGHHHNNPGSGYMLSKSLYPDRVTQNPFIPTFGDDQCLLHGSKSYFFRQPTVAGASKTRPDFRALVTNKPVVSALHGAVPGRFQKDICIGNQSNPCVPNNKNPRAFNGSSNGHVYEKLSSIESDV
T1 sequence (Q00960 27-1482, other chains not shown): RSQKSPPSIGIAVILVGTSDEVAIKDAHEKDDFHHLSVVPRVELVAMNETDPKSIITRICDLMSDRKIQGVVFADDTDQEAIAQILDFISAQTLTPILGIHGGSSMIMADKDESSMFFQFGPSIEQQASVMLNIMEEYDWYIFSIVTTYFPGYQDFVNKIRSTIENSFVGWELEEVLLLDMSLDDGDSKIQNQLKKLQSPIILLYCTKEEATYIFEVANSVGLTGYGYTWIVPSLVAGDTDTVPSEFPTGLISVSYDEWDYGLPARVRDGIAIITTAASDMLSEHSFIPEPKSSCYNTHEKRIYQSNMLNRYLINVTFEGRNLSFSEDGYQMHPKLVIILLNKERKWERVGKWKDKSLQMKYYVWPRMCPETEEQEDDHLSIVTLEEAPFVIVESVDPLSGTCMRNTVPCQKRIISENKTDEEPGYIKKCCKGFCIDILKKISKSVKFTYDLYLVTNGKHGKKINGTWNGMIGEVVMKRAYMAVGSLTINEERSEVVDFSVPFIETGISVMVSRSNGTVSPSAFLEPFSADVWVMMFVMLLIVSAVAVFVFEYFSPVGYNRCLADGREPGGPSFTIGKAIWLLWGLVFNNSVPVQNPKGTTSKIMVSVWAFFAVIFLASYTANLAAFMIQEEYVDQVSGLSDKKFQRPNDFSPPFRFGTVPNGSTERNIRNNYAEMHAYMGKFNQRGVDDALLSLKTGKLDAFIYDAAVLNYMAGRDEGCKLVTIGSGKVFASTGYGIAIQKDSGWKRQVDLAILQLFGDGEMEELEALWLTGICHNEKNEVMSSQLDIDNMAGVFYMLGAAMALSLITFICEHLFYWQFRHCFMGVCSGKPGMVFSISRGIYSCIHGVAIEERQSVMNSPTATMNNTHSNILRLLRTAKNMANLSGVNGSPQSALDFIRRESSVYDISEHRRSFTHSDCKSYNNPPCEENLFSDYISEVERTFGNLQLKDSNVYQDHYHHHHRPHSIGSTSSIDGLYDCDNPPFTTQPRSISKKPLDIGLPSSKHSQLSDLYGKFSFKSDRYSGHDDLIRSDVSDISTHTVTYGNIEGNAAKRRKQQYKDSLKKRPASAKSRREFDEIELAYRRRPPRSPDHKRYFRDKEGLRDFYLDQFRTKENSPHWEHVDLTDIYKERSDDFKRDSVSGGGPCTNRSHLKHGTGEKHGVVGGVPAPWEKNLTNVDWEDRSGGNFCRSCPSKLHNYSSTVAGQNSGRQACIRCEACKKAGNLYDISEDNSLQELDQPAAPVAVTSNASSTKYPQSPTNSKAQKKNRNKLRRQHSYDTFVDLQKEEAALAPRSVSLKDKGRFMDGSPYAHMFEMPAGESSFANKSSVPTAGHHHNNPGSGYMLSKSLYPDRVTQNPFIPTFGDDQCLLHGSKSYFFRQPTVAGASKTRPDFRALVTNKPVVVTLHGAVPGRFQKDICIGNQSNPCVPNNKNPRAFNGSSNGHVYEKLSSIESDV

Consider `COc1c(F)cc(N2CCN(C(=O)CNc3ccc4[nH]c(=O)oc4c3)[C@H](C)C2)cc1F` [Compound I-9], for which the values for the IC50 in assay [1] and in assay [2] were 0.031 µM and 0.007 µM, respectively.
As for `O=C(Nc1ccc2[nH]c(=O)oc2c1)C(=O)N1CCN(c2cc(F)cc(F)c2)CC1` [Compound I-12], in assay [2], the IC50 worked out at 0.108 µM.
With `C[C@@H]1CN(C(=O)C(=O)Nc2ccc3[nH]c(=O)oc3c2)CCN1c1cc(F)cc(F)c1` [Compound I-13], the IC50 was found to be 0.114 µM in assay [1] and 0.014 µM in assay [2].
Consider `C[C@@H]1CN(c2cc(F)cc(F)c2)CCN1C(=O)C(=O)Nc1ccc2[nH]c(=O)oc2c1` [Compound I-14], for which the IC50 in assay [2] amounted to 0.048 µM.
For `C[C@@H]1CN(c2ccc(Cl)cc2)CCN1C(=O)CNc1ccc2[nH]c(=O)oc2c1` [Compound I-15], the values for the IC50 in assay [1] and in assay [2] were 0.039 µM and 0.005 µM, respectively.
Consider `C[C@@H]1CN(C(=O)CNc2ccc3[nH]c(=O)oc3c2)CCN1c1ccc(Cl)cc1` [Compound I-16], for which the IC50 in assay [1] came out at 0.072 µM; in assay [2], 0.012 µM.
With `C[C@@H]1CN(C(=O)CNc2ccc3[nH]c(=O)oc3c2)CCN1c1ccc(Cl)c(F)c1` [Compound I-17], the results for the IC50 in assay [1] and in assay [2] were 0.024 µM and 0.003 µM, respectively.
As for `Cc1ccc(N2CCN(C(=O)C(=O)Nc3ccc4[nH]c(=O)oc4c3)CC2)cc1` [Compound I-18], the IC50 in assay [1] was determined as 0.107 µM; in assay [2] it was 0.048 µM.
`COCc1ccc(N2CCN(C(=O)C(=O)Nc3ccc4[nH]c(=O)oc4c3)C[C@H]2C)cc1` [Compound I-20]: in assay [2], the IC50 is 0.041 µM.
Same read-out and setting: as for `O=C(Nc1ccc2[nH]c(=O)oc2c1)C(=O)N1CCN(c2ccc(OCC(F)(F)F)cc2)CC1` [Compound I-21], the figure is 0.047 µM.
Regarding `Cc1ccc(N2CCN(C(=O)C(=O)Nc3ccc4[nH]c(=O)oc4c3)[C@H](C)C2)cc1` [Compound I-22], the IC50 came out at 0.085 µM in assay [1] and 0.022 µM in assay [2].
As to `C[C@@H]1CN(C(=O)C(=O)Nc2ccc3[nH]c(=O)oc3c2)CCN1c1ccc(OCC(F)(F)F)cc1` [Compound I-23], the IC50 in assay [2] is 0.022 µM.
For the compound `C[C@@H]1CN(c2ccc(OCC(F)(F)F)cc2)CCN1C(=O)C(=O)Nc1ccc2[nH]c(=O)oc2c1` [Compound I-24], the IC50 is 0.105 µM in assay [1] and 0.019 µM in assay [2].
Consider `C[C@@H]1CN(C(=O)C(=O)Nc2cnc3[nH]c(=O)oc3c2)CCN1c1ccc(OC(F)(F)F)cc1` [Compound I-25], for which, in assay [2], the IC50 was found to be 0.009 µM.
As to `Cc1ccc(N2CCN(C(=O)C(=O)Nc3ccc4[nH]c(=O)oc4c3)CC2)cc1F` [Compound I-26], the IC50 was found to be 0.014 µM in assay [1] and 0.007 µM in assay [2].
The like results for `Cc1ccc(N2CCN(C(=O)C(=O)Nc3ccc4[nH]c(=O)oc4c3)[C@H](C)C2)cc1F` [Compound I-27] were, in that order, 0.035 µM and 0.002 µM.
As for `C[C@@H]1CN(C(=O)CNc2ccc3[nH]c(=O)oc3c2)CCN1c1ccc(OC(F)(F)F)cc1` [Compound I-30], the IC50 in assay [2] was 0.031 µM.
On to `CO/N=C/c1ccc(N2CCN(C(=O)C(=O)Nc3ccc4[nH]c(=O)oc4c3)[C@H](C)C2)cc1` [Compound I-31], for which the IC50 in assay [2] is 0.106 µM.
As to `COCc1ccc(N2CCN(C(=O)C(=O)Nc3ccc4[nH]c(=O)oc4c3)[C@H](C)C2)cc1` [Compound I-32], in assay [2], the IC50 was 0.105 µM.
Compound `C[C@@H]1CN(c2ccc(OC(F)(F)F)cc2)CCN1C(=O)CNc1ccc2[nH]c(=O)oc2c1` [Compound I-36] had an IC50 in assay [1] of 0.071 µM.
Consider `Cc1cc(N2CCN(C(=O)C(=O)Nc3ccc4[nH]c(=O)oc4c3)[C@H](C)C2)ccc1F` [Compound I-45], for which the IC50 in assay [2] stood at 0.057 µM.
`Cc1cc(N2CCN(C(=O)C(=O)Nc3ccc4[nH]c(=O)oc4c3)CC2)ccc1F` [Compound I-46]: in assay [2], the IC50 was 0.083 µM.
Still for that read-out and setting: as for `Cc1cc(N2CCN(C(=O)C(=O)Nc3ccc4[nH]c(=O)oc4c3)C[C@H]2C)ccc1F` [Compound I-49], the figure is 0.019 µM; as for `C[C@@H]1CN(c2ccc(F)c(Cl)c2)CCN1CC(=O)Nc1ccc2[nH]c(=O)oc2c1` [Compound I-54], 0.052 µM.
